Assay results published in US20150011466A1, “APJ Receptor Compounds” (priority 2012, published 2015).
Where two headings read alike, the source gives them in different places. Where a SMILES comes first, the peptide text is derived from it. [ ]: non-standard residue; d: D form. The star is where a group is joined. Palmitoyl = CCCCCCCCCCCCCCCC(=O)*; Aib = CC(C)(N)C(=O)O

Tests used:
APJ receptor = biological target: T1, APJ receptor (Homo sapiens, UniProt P35414); experiment: HTRF cAMP assay, inhibition of NKH477 stimulated cAMP in Human TRex cells expressing APJ upon doxycycline induction (APJ-hTREX); type: cell-based; settings: for Ranking: class combining EC50 and % histamine; for percent intrinsic activity at 0.3 µM: read-out: % IA (@ 300 nM)
T1 construct: expressed in transfected cells; host or cells: Human TRex cells (doxycycline-inducible)
T1 sequence (P35414 1-380): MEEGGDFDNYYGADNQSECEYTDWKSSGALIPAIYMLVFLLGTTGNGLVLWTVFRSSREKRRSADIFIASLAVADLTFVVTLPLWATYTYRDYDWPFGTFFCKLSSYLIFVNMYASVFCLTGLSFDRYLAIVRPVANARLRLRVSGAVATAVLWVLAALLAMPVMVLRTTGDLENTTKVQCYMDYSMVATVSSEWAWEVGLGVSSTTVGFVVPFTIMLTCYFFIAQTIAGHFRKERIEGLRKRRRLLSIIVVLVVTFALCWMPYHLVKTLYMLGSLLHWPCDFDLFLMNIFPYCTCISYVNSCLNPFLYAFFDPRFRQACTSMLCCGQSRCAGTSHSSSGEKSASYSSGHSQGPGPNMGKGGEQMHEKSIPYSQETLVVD
In short: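 Cells stimulated with NKH477 and cAMP measured by HTRF competitive immunoassay (cryptate anti-cAMP antibody, d2-labeled cAMP). APJ-hTREX cells induced with […] doxycycline and seeded overnight at 40 k/well.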

SMILES	EC50 (APJ receptor) [nM]	Ranking (APJ receptor)	percent intrinsic activity at 0.3 µM (APJ receptor) [%]	Histimine (% vs. 48/40) (Histimine (% vs. 48/40)) [%]	EC50 (APJ receptor; inhibition of NKH477 stimulated cAMP, APJ-hTREX cells, read-out: APJ-hTREX EC50) [nM]
CCCCCCCCCCCCCCCC(=O)N[C@H](C(=O)NC(C)(C)C(=O)N[C@@H](Cc1ccccc1)C(=O)N[C@@H](CCCNC(=N)N)C(=O)N[C@@H](CO)C(=O)N[C@@H](CO)C(=O)N[C@@H](CCC(=O)O)C(=O)N[C@H](CCCCN)C(=O)N[C@@H](CCCNC(=N)N)C(=O)N[C@@H](CCCNC(=N)N)C(=O)N[C@@H](CO)C(=O)N[C@@H](C)C(=O)N[C@@H](CC(=O)O)C(=O)N[C@H](C(=O)N[C@@H](Cc1ccccc1)C(=O)N[C@H](C(N)=O)[C@@H](C)CC)[C@@H](C)CC)[C@@H](C)O [Compound 57] (Palmitoyl-T[Aib]FRSSE[dK]RRSADIFI-NH2; C-terminus assumed)	68	*** (EC50<100 nM and % histamine>35%)	77	39	–
CCCCCCCCCCCCCCCC(=O)N[C@H](C(=O)N[C@H](C(=O)N[C@@H](Cc1ccccc1)C(=O)NC(C)(C)C(=O)N[C@@H](CO)C(=O)N[C@@H](CO)C(=O)N[C@@H](CCC(=O)O)C(=O)N[C@H](CCCCN)C(=O)N[C@@H](CCCNC(=N)N)C(=O)N[C@@H](CCCNC(=N)N)C(=O)N[C@@H](CO)C(=O)N[C@@H](C)C(=O)N[C@@H](CC(=O)O)C(=O)N[C@H](C(=O)N[C@@H](Cc1ccccc1)C(=O)N[C@H](C(N)=O)[C@@H](C)CC)[C@@H](C)CC)C(C)C)[C@@H](C)O [Compound 58] (Palmitoyl-TVF[Aib]SSE[dK]RRSADIFI-NH2; C-terminus assumed)	10000	* (EC50>500 nM and % histamine>35%)	54	11	–
CCCCCCCCCCCCCCCC(=O)N[C@H](C(=O)N[C@H](C(=O)N[C@@H](Cc1ccccc1)C(=O)N[C@@H](CCCNC(=N)N)C(=O)N[C@@H](CO)C(=O)N[C@@H](CO)C(=O)N[C@@H](CCC(=O)O)C(=O)NC(C)(C)C(=O)N[C@@H](CCCNC(=N)N)C(=O)N[C@@H](CCCNC(=N)N)C(=O)N[C@@H](CO)C(=O)N[C@@H](C)C(=O)N[C@@H](CC(=O)O)C(=O)N[C@H](C(=O)N[C@@H](Cc1ccccc1)C(=O)N[C@H](C(N)=O)[C@@H](C)CC)[C@@H](C)CC)C(C)C)[C@@H](C)O [Compound 60] (Palmitoyl-TVFRSSE[Aib]RRSADIFI-NH2; C-terminus assumed)	167	**** (EC50 101-500 nM and % histamine<35%)	65	26	–
CCCCCCCCCCCCCCCC(=O)N[C@H](C(=O)N[C@H](C(=O)N[C@@H](Cc1ccccc1)C(=O)N[C@@H](CCCNC(=N)N)C(=O)N[C@@H](CO)C(=O)N[C@@H](CO)C(=O)N[C@@H](CCC(=O)O)C(=O)N[C@H](CCCCN)C(=O)NC(C)(C)C(=O)N[C@@H](CCCNC(=N)N)C(=O)N[C@@H](CO)C(=O)N[C@@H](C)C(=O)N[C@@H](CC(=O)O)C(=O)N[C@H](C(=O)N[C@@H](Cc1ccccc1)C(=O)N[C@H](C(N)=O)[C@@H](C)CC)[C@@H](C)CC)C(C)C)[C@@H](C)O [Compound 61, TVFRSSEk(Aib)RSADIFI] (Palmitoyl-TVFRSSE[dK][Aib]RSADIFI-NH2; C-terminus assumed)	5210	–	62	25	–
CCCCCCCCCCCCCCCC(=O)N[C@H](C(=O)N[C@H](C(=O)N[C@@H](Cc1ccccc1)C(=O)N[C@@H](CCCNC(=N)N)C(=O)N[C@@H](CO)C(=O)N[C@@H](CO)C(=O)N[C@@H](CCC(=O)O)C(=O)N[C@H](CCCCN)C(=O)N[C@@H](CCCNC(=N)N)C(=O)NC(C)(C)C(=O)N[C@@H](CO)C(=O)N[C@@H](C)C(=O)N[C@@H](CC(=O)O)C(=O)N[C@H](C(=O)N[C@@H](Cc1ccccc1)C(=O)N[C@H](C(N)=O)[C@@H](C)CC)[C@@H](C)CC)C(C)C)[C@@H](C)O [Compound 62, TVFRSSEkR(Aib)SADIFI] (Palmitoyl-TVFRSSE[dK]R[Aib]SADIFI-NH2)	–	–	51	25	–
CCCCCCCCCCCCCCCC(=O)N[C@H](C(=O)N[C@H](C(=O)N[C@@H](Cc1ccccc1)C(=O)N[C@@H](CCCNC(=N)N)C(=O)N[C@@H](CO)C(=O)N[C@@H](CO)C(=O)N[C@@H](CCC(=O)O)C(=O)N[C@H](CCCCN)C(=O)N[C@@H](CCCNC(=N)N)C(=O)N[C@@H](CCCNC(=N)N)C(=O)NC(C)(C)C(=O)N[C@@H](C)C(=O)N[C@@H](CC(=O)O)C(=O)N[C@H](C(=O)N[C@@H](Cc1ccccc1)C(=O)N[C@H](C(N)=O)[C@@H](C)CC)[C@@H](C)CC)C(C)C)[C@@H](C)O [Compound 63, TVFRSSEkRR(Aib)ADIFI] (Palmitoyl-TVFRSSE[dK]RR[Aib]ADIFI-NH2)	–	–	61	86	–
CCCCCCCCCCCCCCCC(=O)N[C@H](C(=O)N[C@H](C(=O)N[C@@H](Cc1ccccc1)C(=O)N[C@@H](CCCNC(=N)N)C(=O)N[C@@H](CO)C(=O)N[C@@H](CO)C(=O)N[C@@H](CCC(=O)O)C(=O)N[C@H](CCCCN)C(=O)N[C@@H](CCCNC(=N)N)C(=O)N[C@@H](CCCNC(=N)N)C(=O)N[C@@H](CO)C(=O)NC(C)(C)C(=O)N[C@@H](CC(=O)O)C(=O)N[C@H](C(=O)N[C@@H](Cc1ccccc1)C(=O)N[C@H](C(N)=O)[C@@H](C)CC)[C@@H](C)CC)C(C)C)[C@@H](C)O [Compound 64, TVFRSSEkRRS(Aib)DIFI] (Palmitoyl-TVFRSSE[dK]RRS[Aib]DIFI-NH2)	–	–	60	105	–
CCCCCCCCCCCCCCCC(=O)N[C@H](C(=O)N[C@H](C(=O)N[C@@H](Cc1ccccc1)C(=O)N[C@@H](CCCNC(=N)N)C(=O)N[C@@H](CO)C(=O)N[C@@H](CO)C(=O)N[C@@H](CCC(=O)O)C(=O)N[C@H](CCCCN)C(=O)N[C@@H](CCCNC(=N)N)C(=O)N[C@@H](CCCNC(=N)N)C(=O)N[C@@H](CO)C(=O)N[C@@H](C)C(=O)NC(C)(C)C(=O)N[C@H](C(=O)N[C@@H](Cc1ccccc1)C(=O)N[C@H](C(N)=O)[C@@H](C)CC)[C@@H](C)CC)C(C)C)[C@@H](C)O [Compound 65, TVFRSSEkRRSA(Aib)IFI] (Palmitoyl-TVFRSSE[dK]RRSA[Aib]IFI-NH2)	–	–	45	100	–
CCCCCCCCCCCCCCCC(=O)N[C@H](C(=O)N[C@H](C(=O)N[C@@H](Cc1ccccc1)C(=O)N[C@@H](CCCNC(=N)N)C(=O)N[C@@H](CO)C(=O)N[C@@H](CO)C(=O)N[C@@H](CCC(=O)O)C(=O)N[C@H](CCCCN)C(=O)N[C@@H](CCCNC(=N)N)C(=O)N[C@@H](CCCNC(=N)N)C(=O)N[C@@H](CO)C(=O)N[C@@H](C)C(=O)N[C@@H](CC(=O)O)C(=O)N[C@H](C(=O)NC(C)(C)C(=O)N[C@H](C(N)=O)[C@@H](C)CC)[C@@H](C)CC)C(C)C)[C@@H](C)O [Compound 66] (Palmitoyl-TVFRSSE[dK]RRSADI[Aib]I-NH2; C-terminus assumed)	–	**** (EC50 101-500 nM and % histamine<35%)	47	19	173
CCCCCCCCCCCCCCCC(=O)N[C@H](C(=O)N[C@H](C(=O)N[C@@H](Cc1ccccc1)C(=O)N[C@@H](CCCNC(=N)N)C(=O)N[C@@H](CO)C(=O)N[C@@H](CO)C(=O)N[C@@H](CCC(=O)O)C(=O)N[C@H](CCCCN)C(=O)N[C@@H](CCCNC(=N)N)C(=O)N[C@@H](CCCNC(=N)N)C(=O)N[C@@H](CO)C(=O)N[C@@H](C)C(=O)N[C@@H](CC(=O)O)C(=O)N[C@H](C(=O)N[C@@H](Cc1ccccc1)C(=O)NC(C)(C)C(N)=O)[C@@H](C)CC)C(C)C)[C@@H](C)O [Compound 67, TVFRSSEkRRSADIF(Aib)] (Palmitoyl-TVFRSSE[dK]RRSADIF[Aib]-NH2)	–	–	46	50	–
CCCCCCCCCCCCCCCC(=O)N[C@H](C(=O)NCC(=O)N[C@@H](Cc1ccccc1)C(=O)N[C@@H](CCCNC(=N)N)C(=O)N[C@@H](CO)C(=O)N[C@@H](CO)C(=O)N[C@@H](CCC(=O)O)C(=O)N[C@H](CCCCN)C(=O)N[C@@H](CCCNC(=N)N)C(=O)N[C@@H](CCCNC(=N)N)C(=O)N[C@@H](CO)C(=O)N[C@@H](C)C(=O)N[C@@H](CC(=O)O)C(=O)N[C@H](C(=O)N[C@@H](Cc1ccccc1)C(=O)N[C@H](C(N)=O)[C@@H](C)CC)[C@@H](C)CC)[C@@H](C)O [Compound 69] (Palmitoyl-TGFRSSE[dK]RRSADIFI-NH2; C-terminus assumed)	38.1	*** (EC50<100 nM and % histamine>35%)	77	50	–
CCCCCCCCCCCCCCCC(=O)N[C@H](C(=O)N[C@H](C(=O)N[C@@H](Cc1ccccc1)C(=O)NCC(=O)N[C@@H](CO)C(=O)N[C@@H](CO)C(=O)N[C@@H](CCC(=O)O)C(=O)N[C@H](CCCCN)C(=O)N[C@@H](CCCNC(=N)N)C(=O)N[C@@H](CCCNC(=N)N)C(=O)N[C@@H](CO)C(=O)N[C@@H](C)C(=O)N[C@@H](CC(=O)O)C(=O)N[C@H](C(=O)N[C@@H](Cc1ccccc1)C(=O)N[C@H](C(N)=O)[C@@H](C)CC)[C@@H](C)CC)C(C)C)[C@@H](C)O [Compound 71] (Palmitoyl-TVFGSSE[dK]RRSADIFI-NH2; C-terminus assumed)	111	**** (EC50 101-500 nM and % histamine<35%)	65	6	–
